Measurements taken from US20230031406A1, “COMPOUNDS AND COMPOSITIONS FOR TREATING CONDITIONS ASSOCIATED WITH NLRP ACTIVITY” (Novartis AG, priority 2018, published 2023).

System: PMA-differentiated THP-1 cells
Assay: IL-1β production in PMA-differentiated THP-1 cells stimulated with gramicidin (hTHP-1 assay containing 2% fetal bovine serum; Procedures 1 and 2)
Type: cell-based, human
Conditions: Homo sapiens, THP-1, Table B1; 2% fetal bovine serum; class symbols; read-out: Average IC50 of compounds in hTHP-1 assay: hTHP-1 IC50
In short: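 Human monocytic THP-1 cells, matured overnight with PMA at 20 ng/ml, are seeded in low-serum (2% FBS) RPMI. Test compounds, at final concentrations from 100 down to 0.0017 μM, precede gramicidin (5 μM, 2 h) by one hour. Released IL-1β is then determined by HTRF.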

IC50 | Structure (SMILES)
0.2 to 1 µM | CC(C)(O)c1ccc(S(N)(=O)=NC(=O)Nc2c3c(nc4c2CCC4)CCC3)s1 (single isomer, unassigned) [Compound 149a, (R) or (S)-N′-((1,2,3,5,6,7-hexahydrodicyclo-penta[b,e]pyridin-8-yl)carbamoyl)-5-(2-hydroxypropan-2-yl)thiophene-2-sulfonimidamide]
1 to 5 µM | CC1CCc2c1nc1c(c2NC(=O)N=S(N)(=O)c2ccc(CN(C)C)cc2)CCC1 (single isomer, unassigned) [Compound 134ba, (R,R) or (R,S)-4-((dimethyl-amino)methyl)-N′-((3-methyl-1,2,3,5,6,7-hexa-hydrodicyclo-penta[b,e]pyridin-8-yl)carbamoyl)benzene-sulfonimidamide]

Same assay, conditions: Homo sapiens, THP-1, Table B1; 2% fetal bovine serum; numeric bounds; read-out: Average IC50 of compounds in hTHP-1 assay: hTHP-1 IC50

IC50 | Structure (SMILES)
> 30 µM | CNS(=O)(=NC(=O)Nc1c2c(nc3c1CCC3)CCC2)c1ccc(CN(C)C)cc1 (single isomer, unassigned) [Compound 120a, (R) or (S)-4-((dimethylamino)methyl)-N′-((1,2,3,5,6,7-hexahydro-dicyclopenta[b,e]pyridin-8-yl)carbamoyl)-N-methylbenzene-sulfonimidamide]

Same assay, conditions: Homo sapiens, THP-1, Table B2; 2% fetal bovine serum; class symbols; read-out: hTHP-1 IC50

IC50 | Structure (SMILES)
1 to 5 µM | CC(C)(O)c1sc(S(N)(=O)=NC(=O)Nc2c3c(nc4c2CCC4)CCC3)cc1F (centres unmarked) [Compound 678, 4-Fluoro-N′-((1,2,3,5,6,7-hexahydrodicyclopenta[b,e]pyridin-8-yl)carbamoyl)-5-(2-hydroxypropan-2-yl)thiophene-2-sulfonimidamide]
1 to 5 µM | CCc1nc2c(c(NC(=O)N=S(N)(=O)c3ccn(C(F)F)n3)c1C1CC1)CCC2 (centres unmarked) [Compound 629, N′-((3-cyclopropyl-2-ethyl-6,7-dihydro-5H-cyclopenta[b]pyridin-4-yl)carbamoyl)-1-(difluoromethyl)-1H-pyrazole-3-sulfonimidamide]
1 to 5 µM | CC(C)(O)c1cc(F)c([S@@](N)(=O)=NC(=O)Nc2c3c(nc(C4CC4)c2C2CC2)CCC3)s1 [Compound 727a]
1 to 5 µM | Cc1c(C(F)F)nc2c(c1NC(=O)N=S(N)(=O)c1cnc(C(C)(C)O)s1)CCC2 (centres unmarked) [Compound 647, N′-((2-(difluoromethyl)-3-methyl-6,7-dihydro-5H-cyclopenta[b]pyridin-4-yl)carbamoyl)-2-(2-hydroxypropan-2-yl)thiazole-5-sulfonimidamide]
1 to 5 µM | CC1(C)CCc2c1nc1c(c2NC(=O)N=S(N)(=O)c2cnn3c2OCCC3)CCC1 (centres unmarked) [Compound 304, N′-((3,3-dimethyl-1,2,3,5,6,7-hexahydrodicyclopenta[b,e]pyridin-8-yl)carbamoyl)-6,7-dihydro-5H-pyrazolo[5,1-b][1,3]oxazine-3-sulfonimidamide]
1 to 5 µM | CCn1ccc(S(N)(=O)=NC(=O)Nc2c(C)c(C(F)(F)F)nc3c2CCC3)n1 (centres unmarked) [Compound 731]
0.2 to 1 µM | CCc1c(C(F)(F)F)nc2c(c1NC(=O)N=S(N)(=O)c1sc(C(C)(C)O)cc1F)CCC2 (centres unmarked) [Compound 611, N′-((3-ethyl-2-(trifluoromethyl)-6,7-dihydro-5H-cyclopenta[b]pyridin-4-yl)carbamoyl)-3-fluoro-5-(2-hydroxypropan-2-yl)thiophene-2-sulfonimidamide]

Same assay, conditions: Homo sapiens, THP-1, Table B2; 2% fetal bovine serum; numeric bounds; read-out: hTHP-1 IC50

IC50 | Structure (SMILES)
> 30 µM | Cc1c(C(F)(F)F)nc2c(c1NC(=O)N=S(N)(=O)c1cnc(C(C)(O)CO)s1)CCC2 (single isomer, unassigned) [Compound 605d, (R, S) and (S, S) or (R, R) and (S, R)-2-(l,2-Dihydroxypropan-2-yl)-N′-((3-methyl-2-(trifluoromethyl)-6,7-dihydro-5H-cyclopenta[b]pyridin-4-yl)carbamoyl) thiazole-5-sulfonimidamide]
> 30 µM | CC(C)(O)c1ncc(S(N)(=O)=NC(=O)Nc2cc(C(F)F)nc3c2CCC3)s1 (centres unmarked) [Compound 708]

Same assay, conditions: Homo sapiens, THP-1, Table B3; hTHP-1 assay, 2% fetal bovine serum; class symbols; read-out: IC50

IC50 | Structure (SMILES)
1 to 5 µM | CCn1nc(S(N)(=O)=NC(=O)Nc2c3c(nc4c2CC[C@H]4C)CCC3)cc1CO (stereo partly drawn) [Example 590, 1-Ethyl-5-(hydroxymethyl)-N′-(((R)-3-methyl-1,2,3,5,6,7-hexahydrodicyclopenta[b,e]pyridin-8-yl)carbamoyl)-1H-pyrazole-3-sulfonimidamide]
1 to 5 µM | NS(=O)(=NC(=O)Nc1c2c(nc(C3CC3)c1C1CC1)CCC2)c1ccn(C(F)F)n1 (centres unmarked) [Example 571, N′-((2,3-dicyclopropyl-6,7-dihydro-5H-cyclopenta[b]pyridin-4-yl)calbamoyl)-1-(difluoromethyl)-1H-pymzole-3-sulfonimidamide]
5 to 30 µM | C[C@](O)(CO)c1cc(F)c([S@@](N)(=O)=NC(=O)Nc2c3c(nc4c2CCC42CC2)CCC3)s1 [Example 677, (S)-5-((S)-1,2-dihydroxypropan-2-yl)-3-fluoro-N′-((1′,5′,6′,7′-tetrahydro-2′H-spiro[cyclopropane-1,3′-dicyclopenta[b,e]pyridin]-8′-yl)carbamoyl)thiophene-2-sulfonimidamide]
1 to 5 µM | CC(C)(O)c1ncc([S@](N)(=O)=NC(=O)Nc2c3c(nc(C(F)(F)F)c2C2CC2)CCC3)s1 [Example 577, (R)—N′-((3-cyclopropyl-2-(trifluoromethyl)-6,7-dihydro-5H-cyclopenta[b]pyridin-4-yl)carbamoyl)-2-(2-hydroxypropan-2-yl)thiazole-5-sulfonimidamide]

Same assay, conditions: Table B1; 2% fetal bovine serum; class symbols; read-out: Average IC50 of compounds in hTHP-1 assay: hTHP-1 IC50

IC50 | Structure (SMILES)
0.04 to 0.2 µM | CC(C)(O)c1nc(CO)c(S(N)(=O)=NC(=O)Nc2c3c(nc4c2CCC4(C)C)CCC3)s1 (single isomer, unassigned) [Compound 121a, (R) or (S)-N′-((3,3-dimethyl-1,2,3,5,6,7-hexahydro-dicyclopenta[b,e]pyridin-8-yl)carbamoyl)-4-(hydroxymethyl)-2-(2-hydroxypropan-2-yl)thiazole-5-sulfonimidamide]
5 to 30 µM | CC1CCc2c1nc1c(c2NC(=O)N=S(N)(=O)c2ccn(C(C)C)n2)CCC1 (single isomer, unassigned) [Compound 129bb, (S,R) or (S,S)-1-isopropyl-N′-((3-methyl-1,2,3,5,6,7-hexa-hydrodicyclo-penta[b,e]pyridin-8-yl)carbamoyl)-1H-pyrazole-3-sulfonimidamide]
0.04 to 0.2 µM | Cc1sc(S(N)(=O)=NC(=O)Nc2c3c(nc4c2CCC4(C)C)CCC3)cc1C(C)(C)O (single isomer, unassigned) [Compound 169b, (R) or (S)-N′-((3,3-dimethyl-1,2,3,5,6,7-hexahydro-dicyclopenta[b,e]pyridin-8-yl)carbamoyl)-4-(2-hydroxypropan-2-yl)-5-mehtylthiophene-2-sulfonimidamide]
5 to 30 µM | Cc1c(C2CC2)nc2c(c1NC(=O)N=S(N)(=O)c1sc(C(C)(C)O)cc1F)CCC2 (single isomer, unassigned) [Compound 174a, (R) or (S)-N′-((2-cyclopropyl-3-methyl-6,7-dihydro-5H-cyclopenta[b]pyridin-4-yl)carbamoyl)-3-fluoro-5-(2-hydroxypropan-2-yl)thio-phene-2-sulfonimidamide]
5 to 30 µM | CC1CCc2c1nc1c(c2NC(=O)N=S(N)(=O)c2cc(C(C)(C)O)cs2)CCC1C (single isomer, unassigned) [Compound 131e, (S,S,S) or (S,R,S) and (S,S,R) or (S,R,R)-N′-((3,5-dimethyl-1,2,3,5,6,7-hexahydro-dicyclopenta[b,e]pyridin-8-yl)carbamoyl)-4-(2-hydroxypropan-2-yl)thio-phene-2-sulfonimidamide]
5 to 30 µM | CC1CCc2c1nc1c(c2NC(=O)N=S(N)(=O)c2cc(C(C)(C)O)cs2)CCC1C (single isomer, unassigned) [Compound 131c, (S,R,S) and (S,S,R) or (S,R,R) or (S,S,S)-N′-((3,5-dimethyl-1,2,3,5,6,7-hexa-hydrodicyclo-penta[b,e]pyridin-8-yl)carbamoyl)-4-(2-hy-droxypropan-2-yl)thiophene-2-sulfonimidamide]
0.2 to 1 µM | CC1CCc2c1nc1c(c2NC(=O)N=S(N)(=O)c2cc(C(C)(C)O)cs2)CCC1C (centres unmarked) [Compound 131, N′-((3,5-dimethyl-1,2,3,5,6,7-hexahydrodicyclopenta[b,e]pyridin-8-yl)carbamoyl)-4-(2-hydroxypropan-2-yl)thiophene-2-sulfonimidamide]
1 to 5 µM | CC1CCc2c1nc1c(c2NC(=O)N=S(N)(=O)c2ccn(C(F)F)n2)CCC1 (single isomer, unassigned) [Compound 184d, (S,R) or (S,S)-1-(difluoro-methyl)-N′-((3-methyl-1,2,3,5,6,7-hexahydro-dicyclopenta[b,e]pyridin-8-yl)carbamoyl)-1H-pyrazole-3-sulfonimidamide]

Same assay, conditions: Table B1; 2% fetal bovine serum; numeric bounds; read-out: Average IC50 of compounds in hTHP-1 assay: hTHP-1 IC50

IC50 | Structure (SMILES)
> 30 µM | CC1CCc2c1nc1c(c2NC(=O)N=S(N)(=O)c2ccc(CN(C)C)cc2)CCC1 (single isomer, unassigned) [Compound 134ab, (S,R) or (S,S)-4-((di-methylamino)methyl)-N′-((3-methyl-1,2,3,5,6,7-hexa-hydrodicyclo-penta[b,e]pyridin-8-yl)carbamoyl)benzene-sulfonimidamide]

Same assay, conditions: Table B3; hTHP-1 assay, 2% fetal bovine serum; class symbols; read-out: IC50

IC50 | Structure (SMILES)
0.2 to 1 µM | CCn1ccc(S(N)(=O)=NC(=O)Nc2c3c(nc(C4CC4)c2C2CC2)CCC3)n1 (single isomer, unassigned) [Example 699, (R) or (S)-N′-((2,3-dicyclopropyl-6,7-dihydro-5H-cyclopenta[b]pyridin-4-yl)carbamoyl)-1-ethyl-1H-pyrazole-3-sulfonimidamide]
